10 molecules from PubChem BioAssay (NCI) can be followed below.

Some test systems named below: MOLT-4 leukemia; COLO 205 colon; BT-549 breast; ACHN renal; OVCAR-3 ovarian; A498 renal; MDA-MB-435; A549 NSCLC; MCF7 breast; SF-268 CNS.
What all share (test): NCI-60 cell line screen, 48 h

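Dose response: 5 concentrations. Exposure: 48 h. Format: 96-well plates. Endpoint: linear interpolation; highest concentration if not reached. At the GI50, growth is halved. TGI: total growth inhibition.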 Where only a bound is given, the exact number is not on record here.

`ClCCN(CCCl)c1ccc(-n2cnc3c(Cl)ncnc32)cc1`: the GI50 in the assay with MOLT-4 leukemia was 2.99 µM; with COLO 205 colon it was 5.74 µM; with BT-549 breast, 3.51 µM; in the assay on ACHN renal, 1.84 µM; in the assay on OVCAR-3 ovarian it was 1.77 µM; in the assay with A498 renal it was 11.9 µM. For the same molecule, the GI50 is 2.04 µM in the assay on MDA-MB-435, 12.5 µM in the assay on A549 NSCLC, 3.68 µM in the assay on MCF7 breast and 1.81 µM in the assay with SF-268 CNS. The TGI with MOLT-4 leukemia worked out at 7.84 µM; with COLO 205 colon, 19.1 µM; with BT-549 breast, 12.9 µM; in the assay on ACHN renal it was 3.54 µM; in the assay with OVCAR-3 ovarian, 3.15 µM; with A498 renal it was 24.5 µM. Further, the TGI with MDA-MB-435 is 4.12 µM; in the assay on A549 NSCLC it was 29.7 µM; in the assay on MCF7 breast, 15.1 µM; with SF-268 CNS it was 3.73 µM.
On to `COc1ccc(O)c(C(=O)c2ccc(C(=O)O[C@@H]3CCCNC[C@H]3NC(=O)c3ccncc3)cc2)c1F`, for which the GI50 is 0.456 µM in the assay with MOLT-4 leukemia; 1.16 µM in the assay with COLO 205 colon; 0.212 µM with BT-549 breast; 1.49 µM in the assay with ACHN renal; 0.961 µM in the assay with OVCAR-3 ovarian; 0.189 µM in the assay with A498 renal. The GI50 is 1.9 µM in the assay with MDA-MB-435, 0.592 µM in the assay on A549 NSCLC, 0.275 µM in the assay with MCF7 breast and 0.753 µM with SF-268 CNS. The TGI is greater than 5.54 µM in the assay on MOLT-4 leukemia; greater than 25 µM with COLO 205 colon; 3.36 µM in the assay on BT-549 breast; greater than 25 µM in the assay on ACHN renal; greater than 7.35 µM in the assay with OVCAR-3 ovarian; 1.6 µM in the assay with A498 renal. The TGI in the assay on MDA-MB-435, in the assay on A549 NSCLC, in the assay on MCF7 breast and with SF-268 CNS was greater than 25 µM in each case.
For the molecule `COCCOC(=O)C1=C(C)NC2=C(C(=O)CC(c3ccccc3OC)C2)C1c1cccc(O)c1` (configuration not stated), the GI50 was 22 µM in the assay on MOLT-4 leukemia; 8.55 µM in the assay with COLO 205 colon; 11.7 µM in the assay on BT-549 breast; 19.1 µM with ACHN renal; 9.13 µM in the assay on OVCAR-3 ovarian; 10.2 µM in the assay on A498 renal. In addition, the GI50 is 5.31 µM with MDA-MB-435, 13.1 µM in the assay with A549 NSCLC, 4.31 µM in the assay on MCF7 breast and 15.8 µM in the assay on SF-268 CNS. Besides, the TGI was greater than 77.6 µM with MOLT-4 leukemia; 24.8 µM in the assay with COLO 205 colon; 37.5 µM with BT-549 breast; 71.2 µM with ACHN renal; 23.9 µM in the assay with OVCAR-3 ovarian; 25.9 µM with A498 renal. Besides, the TGI is 25.4 µM with MDA-MB-435, greater than 72.2 µM with A549 NSCLC, 72.4 µM with MCF7 breast and 53.4 µM in the assay on SF-268 CNS.
For `COc1cc(OC)c2c(=O)c(O)c(-c3ccc(OC)c(OC)c3)oc2c1`, the TGI was 9.61 µM with MOLT-4 leukemia; greater than 100 µM in the assay with COLO 205 colon; greater than 100 µM with BT-549 breast; greater than 100 µM in the assay with ACHN renal; greater than 100 µM in the assay on OVCAR-3 ovarian; greater than 100 µM in the assay on A498 renal. Moreover, the TGI was greater than 31.6 µM in the assay on MDA-MB-435, greater than 100 µM in the assay on A549 NSCLC, greater than 31.6 µM in the assay with MCF7 breast and greater than 31.6 µM in the assay on SF-268 CNS.
Regarding `CN1CCN(c2ccc3nc(-c4cc(C(C)(C)C)c(O)c(C(C)(C)C)c4)[nH]c3c2)CC1`, the GI50 in the assay on MOLT-4 leukemia was 2.2 µM; with COLO 205 colon it was 2.02 µM; with BT-549 breast it was 2.23 µM; with ACHN renal, 3.06 µM; with OVCAR-3 ovarian, 4.06 µM; in the assay on A498 renal, 7.23 µM. Besides, the GI50 in the assay with MDA-MB-435 is 1.73 µM; in the assay on A549 NSCLC, 3.26 µM; in the assay on MCF7 breast it was 1.8 µM; in the assay on SF-268 CNS it was 2.62 µM. Further, the TGI in the assay on MOLT-4 leukemia came to 5.55 µM; in the assay on COLO 205 colon, 4.26 µM; in the assay with BT-549 breast, 6.43 µM; in the assay with ACHN renal, 8.62 µM; with OVCAR-3 ovarian, 14 µM; in the assay on A498 renal, 21.2 µM. Moreover, the TGI with MDA-MB-435 amounted to 3.16 µM; in the assay with A549 NSCLC, 11.5 µM; with MCF7 breast it was 4.14 µM; in the assay on SF-268 CNS, 7.14 µM.
On to `O=C1OC(c2ccc(O)c(-c3ccccc3)c2)(c2ccc(O)c(-c3ccccc3)c2)c2c(Cl)c(Cl)c(Cl)c(Cl)c21`, for which the TGI in the assay with MOLT-4 leukemia, in the assay with COLO 205 colon, with BT-549 breast, in the assay on ACHN renal, in the assay on OVCAR-3 ovarian and in the assay on A498 renal was greater than 100 µM in each case. For the same molecule, the TGI in the assay with MDA-MB-435, with A549 NSCLC, in the assay on MCF7 breast and in the assay with SF-268 CNS was greater than 100 µM throughout.
As to `CCc1c2c(nc3cc4c(cc13)OCO4)-c1cc3c(c(=O)n1C2)COC(=O)[C@@]3(CC)OC(=O)CN`, the GI50 in the assay with MOLT-4 leukemia is less than 0.01 µM; in the assay with COLO 205 colon it was 0.133 µM; with BT-549 breast it was less than 0.01 µM; in the assay with ACHN renal it was less than 0.01 µM; with OVCAR-3 ovarian it was less than 0.01 µM; with A498 renal it was less than 0.0107 µM. Moreover, the GI50 in the assay with MDA-MB-435, with A549 NSCLC, with MCF7 breast and with SF-268 CNS was less than 0.01 µM in each case. Besides, the TGI was less than 0.01 µM in the assay with MOLT-4 leukemia; 1.13 µM in the assay with COLO 205 colon; less than 0.0366 µM in the assay on BT-549 breast; less than 0.01 µM with ACHN renal; 0.315 µM in the assay with OVCAR-3 ovarian; 0.166 µM in the assay with A498 renal. The TGI in the assay on MDA-MB-435 was 1.23 µM; in the assay with A549 NSCLC, 0.149 µM; with MCF7 breast, less than 0.0346 µM.
As to `CO[C@@H]1[C@@H](OC2OC(C)C(OC3CC(C)(O)C(OC(=O)CC(C)C)C(C)O3)C(N(C)C)C2O)[C@@H](CC=O)C[C@@H](C)C(=O)/C=C/C2O[C@H]2C[C@@H](C)OC(=O)C[C@H]1OC(C)=O` (some centres not stated), the TGI with MOLT-4 leukemia worked out at 27.7 µM; in the assay with COLO 205 colon, 26.2 µM; in the assay on BT-549 breast, 40.5 µM; in the assay with ACHN renal, 46.8 µM; in the assay with OVCAR-3 ovarian it was 40.5 µM; in the assay on A498 renal, 52 µM. Besides, the TGI with MDA-MB-435 is 45.2 µM; in the assay on A549 NSCLC, greater than 100 µM; with MCF7 breast, 30.7 µM; in the assay on SF-268 CNS, greater than 100 µM.
As for `Nc1ccc2c(c1)C(=O)c1c(F)cccc1-2`, the TGI with COLO 205 colon, in the assay on BT-549 breast, with ACHN renal, in the assay with OVCAR-3 ovarian, with A498 renal and with MDA-MB-435 was greater than 100 µM in each case. Besides, the values for the TGI with A549 NSCLC, in the assay on MCF7 breast and in the assay on SF-268 CNS were greater than 100 µM, 41.7 µM and greater than 100 µM, respectively.
As to `O=S1(=O)CCN(Cc2ccccn2)CC1`, the TGI with COLO 205 colon is greater than 100 µM; with BT-549 breast, greater than 100 µM; with ACHN renal, greater than 100 µM; in the assay with OVCAR-3 ovarian, 9.94 µM; in the assay on A498 renal it was greater than 100 µM; in the assay with MDA-MB-435, greater than 100 µM. Also, the TGI in the assay with A549 NSCLC, in the assay on MCF7 breast and in the assay on SF-268 CNS was greater than 100 µM throughout.
